Test: T3 promoter assay cell test (luciferase reporter under thyroid hormone-regulated promoter)
Type: cell-based
Conditions: Homo sapiens; HepG2 luciferase reporter with thyroid hormone-responsive element; costimulator retinoic acid; incubation 48 or 72 hours; four replicates
Experimental: The activity of the compounds according to the invention can be tested for example in vitro by the known T3 promoter assay cell test which is described below.
T3 Promoter Assay Cell Test
The test is carried out with a stably transfected human HepG2 hepatocarcinoma cell which expresses a luciferase gene under the control of a thyroid hormone-regulated promoter. The vector used for the transfection has upstream of the luciferase gene a minimal thymidine kinase promoter with a thyroid hormone-responsive element (TRE) which consists of two inverted palindromes each of 12 bp and of an 8 bp spacer.
For the test, the cell cultures are seeded in Eagle's minimal essential medium in 96-well plates with the following additions: glutamine, tricine, sodium pyruvate, nonessential amino acids, insulin, selenium and transferrin. The cultures are grown at 37° C. with a 10% CO2 atmosphere for 48 hours. In serial dilutions of test substance or reference compound (triiodothyronine=T3, thyroxine=T4) and costimulator retinoic acid are added to the test cultures and the latter are incubated as previously for a further 48 or 72 hours. Each substance concentration is tested in four replicates. To determine the luciferase induced by T3 or other substances, the cells are subsequently lysed by adding a Triton- and luciferin-containing buffer and measured immediately in a luminometer. The EC50 values for each compound are calculated (see Table 1).

EC50 [nM] | Compound
20 | CCOC(=O)C(=O)Nc1cc(C)c(Oc2ccc(O)c(NC(=O)CCc3ccccc3)c2)c(C)c1 [Example 8, Ethyl (4-{4-hydroxy-3-[(3-phenylpropanoyl)amino]phenoxy}-3,5-dimethylanilino)(oxo)acetate]
28 | CCOC(=O)C(=O)Nc1cc(C)c(Oc2ccc(O)c(C(=O)N(C)C3CCCCC3)c2)c(C)c1 [Example 16, Ethyl [4-(3-{[cyclohexyl(methyl)amino]carbonyl}-4-hydroxyphenoxy)-3,5-dimethylanilino](oxo)acetate]
2.4 | CCCN(Cc1ccccc1)Cc1cc(Oc2c(C)cc(NC(=O)C(=O)OCC)cc2C)ccc1O [Example 29]
6.7 | CCOC(=O)C(=O)Nc1cc(C)c(Oc2ccc(O)c(CN(Cc3ccccc3)Cc3ccccc3)c2)c(C)c1 [Example 54]
55 | CCCCCCCC(=O)N(Cc1cc(Oc2c(C)cc(NC(=O)C(=O)OCC)cc2C)ccc1O)c1ccc(F)cc1 [Example 122]
14 | CCOC(=O)C(=O)Nc1cc(C)c(Oc2ccc(O)c(NC(=O)C(C)Oc3ccc(Cl)cc3C)c2)c(C)c1 (centres unmarked) [Example 190]
61 | Cc1cc(N)cc(C)c1Oc1ccc(O)c(NC(=O)NC(C)c2ccccc2)c1 (centres unmarked) [Example 204]
12 | CCOC(=O)C(=O)Nc1cc(C)c(Oc2ccc(O)c(C(=O)NC(CC)c3ccccc3)c2)c(C)c1 (centres unmarked) [Example 260]
